Laboratory results published in US8618287B2, “Derivatives of triazines and uracils, their preparation and their application in human therapeutics” (Pierre Fabre Medicament, priority 2008, dated 2013).

target: T1, Human SCD-1 (Homo sapiens, UniProt O00767); assay: Human SCD-1 enzymatic activity from microsomes of HepG2 cells (conversion of stearic acid into oleic acid); type: biochemical; settings: 10 μM compound; microsomal fraction of HepG2 cells; relative to carrier 0.1% DMSO; read-out: HSCD-1 (HEPG2) % inh. (10 μM)
T1 construct: adding 125 μg of microsomal fraction of HepG2 cells; host or cells: HepG2 human hepatocarcinoma cells (microsomal fraction)
T1 sequence (O00767 1-359): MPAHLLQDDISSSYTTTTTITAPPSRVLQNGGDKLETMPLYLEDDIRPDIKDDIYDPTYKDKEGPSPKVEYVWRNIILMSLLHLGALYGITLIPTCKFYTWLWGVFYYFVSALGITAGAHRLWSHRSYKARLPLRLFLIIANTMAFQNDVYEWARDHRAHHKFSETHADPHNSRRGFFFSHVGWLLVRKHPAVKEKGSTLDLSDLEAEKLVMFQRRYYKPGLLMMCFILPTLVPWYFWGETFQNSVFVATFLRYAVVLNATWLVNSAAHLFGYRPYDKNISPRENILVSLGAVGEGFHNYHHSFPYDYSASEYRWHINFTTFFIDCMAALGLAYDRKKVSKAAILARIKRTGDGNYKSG
Description: In vitro: Human SCD-1 enzymatic activity from microsomes of HepG2 cells after treatment with inhibitory compounds (inhibition %).
Human hepatocarcinoma HepG2 cells (ATCC, HB-8065) are grown to confluence and then trypsinized. The cell pellet is taken up in 10 mM Tris buffer (pH 7.4), saccharose (250 mM) DTT (1 mM) and then the cells are lyzed by sonication. The microsomes are obtained after centrifugation at 10,000 g for 20 minutes a 4° C. followed by centrifugation of the supernatant at 100,000 g for 60 minutes a 4° C. The pellet is taken up in 10 mM Tris buffer (pH 7.4) saccharose (250 mM) at 4° C. and the microsomal proteins are assayed and stored at −196° C. (liquid nitrogen).
The enzymatic reaction measures the conversion of stearic acid (a C18:0 fatty acid) into oleic acid (C18:1 fatty acid) by SCD-1. The enzymatic reaction is started by adding 125 μg of microsomal fraction of HepG2 cells to tubes (total reaction volume of 500 μl) containing 62 μM of stearic acid (45 μM of stearic acid and 17 μM of [^14C] stearic acid) in a phosphate buffer at 100 mM (pH 7.16) with 7.2 mM of ATP, 0.54 mM of CoA, 6 mM of MgCl2, 0.8 mM of NADH and the inhibitory compound or the carrier (0.1% DMSO). The tubes are incubated for 20 minutes at 37° C. and the enzymatic reaction is then stopped by adding KOH (12%) and saponification for 30 minutes at 80° C. After acidification (3N HCl), the fatty acids are extracted twice with ethyl ether, evaporated under nitrogen before being taken up with a methanol/dichloromethane (3:1) mixture. The product of the reaction (C18:1) is separated from the substrate of the reaction (C18:0) by HPLC (Perkin Elmer, C18 reverse phase column) coupled to a on-line radioactivity detector (FlowOne). Enzymatic activity is calculated in picomoles of stearic acid converted into oleic acid per minute and per mg of protein. For each inhibitory compound, an inhibition % is determined relatively to the reference enzymatic activity (carrier 0.1% DMSO). Sterculic acid is the reference inhibitory compound (Gomez F. E., Bauman D. E., Ntambi J. M., Fox B. G. Effects of sterculic acid on stearoyl-CoA desaturase in differentiating […] adipocytes. Biochem Biophys Res Commun. 300 316-326 (2003)).

In order of falling inhibition at 10 µM:
1. Cn1c(=O)[nH]nc(N2CCN(C(=O)c3cc(F)ccc3C(F)(F)F)CC2)c1=O [Example 69, 6-[4-(5-fluoro-2-trifluoromethyl-benzoyl)-piperazin-1-yl]-4-methyl-2H-[1,2,4]triazine-3,5-dione]  84%
2. Cn1c(=O)c(N2CCN(C(=O)c3cc(F)ccc3C(F)(F)F)CC2)nn(CCCC(F)(F)F)c1=O [Example 47, 6-[4-(5-fluoro-2-trifluoromethyl-benzoyl)-piperazin-1-yl]-4-methyl-2-(4,4,4-trifluoro-butyl)-2H-[1,2,4]triazine-3,5-dione]  84%
3. Cn1c(=O)c(N2CCC(Oc3ccccc3Cl)CC2)nn(CCC#N)c1=O [Example 23, 3-{6-[4-(2-chloro-phenoxy)-piperidin-1-yl]-4-methyl-3,5-dioxo-4,5-dihydro-3H-[1,2,4]triazin-2-yl}-propionitrile]  73%
4. Cn1c(=O)c(N2CCN(Cc3ccccc3C(F)(F)F)CC2)nn(CCCC(F)(F)F)c1=O [Example 57, 4-methyl-2-(4,4,4-trifluoro-butyl)-6-[4-(2-trifluoromethyl-benzyl)-piperazin-1-yl]-2H-[1,2,4]triazine-3,5-dione]  71%
5. Cn1c(=O)c(N2CCC(Oc3ccccc3C(F)(F)F)CC2)nn(CCc2c[nH]c3ccccc23)c1=O [Example 16, 2-[2-(1H-Indol-3-yl)-ethyl]-4-methyl-6-[4-(2-trifluoromethyl-phenoxy)-piperidin-1-yl]-2H-[1,2,4]triazine-3,5-dione]  57%
6. Cn1c(=O)c(N2CCC(Oc3ccccc3C(F)(F)F)CC2)nn(CCCC(=O)c2cccs2)c1=O [Example 19, 4-methyl-2-(4-oxo-4-thiophen-2-yl-butyl)-6-[4-(2-trifluoromethyl-phenoxy)-piperidin-1-yl]-2H-[1,2,4]triazine-3,5-dione]  57%
7. Cn1nc(N2CCC(Oc3ccccc3F)CC2)c(=O)n(C)c1=O [Example 28, 6-[4-(2-fluoro-phenoxy)-piperidin-1-yl]-2,4-dimethyl-2H-[1,2,4]triazine-3,5-dione]  50%
8. Cn1c(=O)[nH]nc(N2CCN(Cc3ccc(F)cc3C(F)(F)F)CC2)c1=O [Example 71, 6-[4-(4-fluoro-2-trifluoromethyl-benzyl)-piperazin-1-yl]-4-methyl-2H-[1,2,4]triazine-3,5-dione]  50%

system: not given; assay: not given; settings: not given

In order of rising melting point:
1. CC(C)C(C(=O)N1CCN(c2nn(C)c(=O)n(C)c2=O)CC1)c1ccc(Cl)cc1 (centres unmarked) [Example 49, 6-{4-[2-(4-chloro-phenyl)-3-methyl-butyryl]-piperazin-1-yl}-2,4-dimethyl-2H-[1,2,4]triazine-3,5-dione]  58 °C
2. Cc1ccccc1C(=O)N1CCN(c2nn(C)c(=O)n(C)c2=O)CC1 [Example 43, 2,4-dimethyl-6-[4-(2-methyl-benzoyl)-piperazin-1-yl]-2H-[1,2,4]triazine-3,5-dione]  60 °C
3. COc1ccccc1OC1CCN(c2nn(C)c(=O)n(C)c2=O)CC1 [Example 34, 6-[4-(2-methoxy-phenoxy)-piperidin-1-yl]-2,4-dimethyl-2H-[1,2,4]triazine-3,5-dione]  78 °C
4. Cn1nc(N2CCC(Oc3ccccc3)C2)c(=O)n(C)c1=O (centres unmarked) [Example 38, 2,4-dimethyl-6-(3-phenoxy-pyrrolidin-1-yl)-2H-[1,2,4]triazine-3,5-dione]  80 °C
5. Cn1nc(N2CCC(Oc3ccccc3C(F)(F)F)C2)c(=O)n(C)c1=O (centres unmarked) [Example 37, 2,4-dimethyl-6-[3-(2-trifluoromethyl-phenoxy)-pyrrolidin-1-yl]-2H-[1,2,4]triazine-3,5-dione]  84 °C
6. Cn1nc(N2CCN(C(=O)c3ccccc3C(F)(F)F)C(=O)C2)c(=O)n(C)c1=O [Example 53, 2,4-dimethyl-6-[3-oxo-4-(2-trifluoromethyl-benzoyl)-piperazin-1-yl]-2H-[1,2,4]triazine-3,5-dione]  90 °C
7. Cn1nc(N2CCN(C(=O)c3cc(C(F)(F)F)ccc3C(F)(F)F)CC2)c(=O)n(C)c1=O [Example 40, 6-[4-(2,5-Bis-trifluoromethyl-benzoyl)-piperazin-1-yl]-2,4-dimethyl-2H-[1,2,4]triazine-3,5-dione]  90 °C
8. Cn1nc(N2CCN(C(=O)c3cccc(C(F)(F)F)c3)CC2)c(=O)n(C)c1=O [Example 44, 2,4-dimethyl-6-[4-(3-trifluoromethyl-benzoyl)-piperazin-1-yl]-2H-[1,2,4]triazine-3,5-dione]  92 °C
9. Cn1nc(N2CCN(C(=O)Oc3cccc(C(F)(F)F)c3)CC2)c(=O)n(C)c1=O [Example 51, 4-(2,4-dimethyl-3,5-dioxo-2,3,4,5-tetrahydro-[1,2,4]triazin-6-yl)-piperazine-1-carboxylic Acid 3-trifluoromethyl-phenyl Ester]  93 °C
10. O=c1[nH]nc(N2CCC(Oc3ccccc3C(F)(F)F)CC2)c(=O)n1CCCC(F)(F)F [Example 72, 4-(4,4,4-trifluoro-butyl)-6-[4-(2-trifluoromethyl-phenoxy)-piperidin-1-yl]-2H-[1,2,4]triazine-3,5-dione]  102 °C
11. Cn1c(=O)c(N2CCC(Oc3ccccc3C(F)(F)F)CC2)nn(C2Cc3ccccc3C2=O)c1=O (centres unmarked) [Example 87, 4-methyl-2-(1-oxo-indan-2-yl)-6-[4-(2-trifluoromethyl-phenoxy)-piperidin-1-yl]-2H-[1,2,4]triazine-3,5-dione]  110 °C
12. Cn1nc(N2CCC(Cc3cc(C(F)(F)F)ccc3F)CC2)c(=O)n(C)c1=O [Example 39, 6-[4-(2-fluoro-5-trifluoromethyl-benzyl)-piperidin-1-yl]-2,4-dimethyl-2H-[1,2,4]triazine-3,5-dione]  116 °C
13. Cn1nc(N2CCN(C(=O)c3ccccc3Br)CC2)c(=O)n(C)c1=O [Example 45, 6-[4-(2-bromo-benzoyl)-piperazin-1-yl]-2,4-dimethyl-2H-[1,2,4]triazine-3,5-dione]  119 °C
14. Cn1nc(N2CCN(C(=O)c3ccc(F)cc3C(F)(F)F)CC2)c(=O)n(C)c1=O [Example 41, 6-[4-(4-fluoro-2-trifluoromethyl-benzoyl)-piperazin-1-yl]-2,4-dimethyl-2H-[1,2,4]triazine-3,5-dione]  128 °C
15. Cn1nc(N2CCC(C(=O)c3ccc(F)cc3)CC2)c(=O)n(C)c1=O [Example 36, 6-[4-(4-fluoro-benzoyl)-piperidin-1-yl]-2,4-dimethyl-2H-[1,2,4]triazine-3,5-dione]  129 °C
16. Cn1nc(N2CCN(C(=O)c3ccccc3)CC2)c(=O)n(C)c1=O [Example 46, 6-(4-benzoyl-piperazin-1-yl)-2,4-dimethyl-2H-[1,2,4]triazine-3,5-dione]  132 °C
17. Cn1cc(N2CCN(Cc3ccccc3)CC2)c(=O)n(C)c1=O  162 °C
18. Cn1nc(N2CCN(c3cccc(C(F)(F)F)c3)CC2)c(=O)n(C)c1=O  163 °C
19. Cn1cc(N2CCN(C(=O)c3ccccc3C(F)(F)F)CC2)c(=O)n(C)c1=O [Example 62, 1,3-dimethyl-5-[4-(2-trifluoromethyl-benzoyl)-piperazin-1-yl]-1H-pyrimidine-2,4-dione]  163 °C
20. Cn1nc(N2CCC(Oc3cc(F)ccc3Cl)CC2)c(=O)[nH]c1=O [Example 90, 6-(4-(2-chloro-5-fluorophenoxy)piperidin-1-yl)-2-methyl-1,2,4-triazine-3,5(2H, 4H)-dione]  172 °C
21. Cn1nc(N2CCN(C(=O)/C=C/c3ccc([N+](=O)[O-])cc3)CC2)c(=O)n(C)c1=O [Example 50, 2,4-dimethyl-6-{4-[(E)-3-(4-nitro-phenyl)-acryloyl]-piperazin-1-yl}-2H-[1,2,4]triazine-3,5-dione]  198 °C
